Test results as given in paper PMC5581131, “The novel sphingosine-1-phosphate receptors antagonist AD2900 affects lymphocyte activation and inhibits T-cell entry into the lymph nodes” (Oncotarget, 2017).

Test system: human PBMCs
Test: 5-day MLR with Et-18-OCH3, BAPTA-AM or 8-bromo-cAMP preincubation, analogues present throughout
Format: cell-based
Conditions: 2 μM; 1 hour preincubation with the inhibitors
Procedure: To determine whether the effect of inhibition of AD2900 on PBMC proliferation is dependent on the same signal transduction pathways, we next examined the capacities of the intracellular Ca^2+ chelator-BAPTA-AM, phosphatidylinositol-specific PLC inhibitor-Et-18-OCH3, and cell-permeate exogenous cAMP-8-bromo-cAMP to alter the suppressive effect of AD2900 and FTY720 on PBMC proliferation. S1P served as a positive control (Figures 2A, 2B, and 2C, respectively). PBMCs were pre-incubated for 1 hour with the inhibitors before the addition of 2 μM AD2900, FTY720, or S1P in the MLR experiment. The inhibitors and the analogues were present in the culture throughout the allogeneic activation. AD2900 suppression of PBMC proliferation was reduced from 59% ± 3% to 32% ± 7% by the exogenous cAMP. BAPTA-AM also partially reversed AD2900 suppression of PBMC proliferation from 59% ± 3% to 32% ± 3%, yet Et-18-OCH3 had no effect (Figure 2A).
Figure 2 Effect of AD2900 on proliferation is dependent on cAMP reduction and calcium signal transduction The effect of Edelfosine (Et-18-OCH3) (Et), BAPTA-AM (BAPTA), or 8-bromo-cAMP (8-b-CAMP) on the inhibition of PBMC proliferation was tested in a 5-day MLR experiment. The cells were incubated with 1 μM Edelfosine, 0.2 μM BAPTA-AM, or 5 μM 8-bromo-cAMP for 1 hour before the addition of sphingolipid analogues, 2 μM AD2900 (AD) (A), FTY720 (FTY) (B), or S1P (C). Significances are compared to AD2900/FTY/S1P without preincubation, respectively. Graphs summarize the results of at least four independent experiments. Results of Student’s t-test: *(P < 0.05, two-tailed test), ** (P < 0.01, two-tailed test).
Human PBLs were collected from human whole blood collected from healthy donors. Subsequently, the cells were centrifuged on a Ficoll-Paque gradient (Fresenius Kabi Norge AS, Oslo, Norway) and were isolated from the interphase layer. For the human MLR experiment, PBMCs from one healthy donor were pretreated for 1 day with AD2900, AD2730, AD2750, YZ297, YZ158, FTY720, or SEW2871. After 24 h, cells were washed and plated at a concentration of 5 × 10^4 cells/well in round bottom 96-well plates containing RPMI-1640 medium Supplemented with 10% human AB serum, 1% penicillin/streptomycin, and 1% l-glutamine (Beit Haemek, Israel). PBMCs from a second donor were irradiated at 3000 γ dosage and added to the plate in a 1:1 ratio with the first donor cells. The cells were cultured for 5 days. For the thymidine incorporation assay, after 4 days of co-culture, cells were pulsed with ^3H-thymidine at 1 μCi (0.037MBq) per well (PerkinElmer, MA, USA) for 16 additional hours and then harvested onto glass-fiber filters. ^3H-thymidine incorporation was measured using Top Count. NXT (PerkinElmer, UK). In other experiments, the supernatant was harvested after 5 days of co-culture for IFN-γ and TNF-α cytokine ELISA measurements (eBioscience, CA, USA). The cells were then collected for assessing apoptosis by FACS in MACSQuant analyzer (Miltenyi Biotech, Germany). In another set of experiments, the PBMCs of two donors were mixed. Sphingolipid analogues were then added to the culture and sustained through the 5 days of the MLR experiment.

SMILES: CCCCCCCCCCCCC/C=C/[C@@H](O)[C@@H](N)COP(=O)(O)O [S1P, Sphingosine-1-phosphate]
- effect of Et-18-OCH3, BAPTA-AM and 8-bromo-cAMP on suppression of PBMC proliferation: reversed by all three inhibitors
